# Data reported in patent US5837282A, “Ionophore-mediated liposome loading” (priority 1996, dated 1998).
# Like-named read-outs stand apart in the source and are kept apart here.
# Tests used:
# [1] = large Mn2+ gradient still present; Erdahl et al.; cited from earlier work
# [2] = Fluorimetric determination of A23187 in a liposomal formulation; assay type: physicochemical; conditions: for Amount of A23187 measured: no removal; for remaining A23187 concentration: initial 500 ng
# Experimental: The quantity of A23187 in SPM/Chol LUVs was determined by measuring the fluorescence intensity of the ionophore at an emission wavelength of 437 nm following solubilization of the liposomal formulation and complexation of the released divalent cations. Briefly, an aliquot of LUV/A23187 (corresponding to 5 μmol total lipid) was combined with a 333 mM EDTA solution (3 μL) and the volume was made up to 1 mL with ethanol:methanol (70:30 v:v). The sample was vortexed until clear, and the fluorescence intensity was measured. Calibration standards were prepared by the addition of known aliquots of A23187 to a 1 mL solution consisting of ethanol:methanol (70:30 v:v) and containing 5 mM total lipid.
# As mentioned above, the concentration of A23187 in LUVs can be quantitated using a fluorimetric assay which allows determination of the amount remaining following various purification procedures. The results are given in Table 5 for SPM/Chol LUVs initially containing A23187 at a concentration of 0.1 μg/μmol lipid. For sample 1 (S1), 146 ng of A23187 was added to the LUVs, and 123 ng was measured by the assay.
# [3] = Pressman, cited from earlier work
# [4] = literature; cited from earlier work
# [5] = Drug uptake/leakage after removal of nigericin (spin column, dialysis)
# Experimental: Uptake was monitored for LUVs containing 300 mM K2 SO4 at a nigericin concentration of 1 ng/μmol lipid (.box-solid.), and for LUVs which were preincubated with nigericin for 5 min at 60° C., and then passed down a spin column prior to addition of the drug (.circle-solid.).
# Thus, an aliquot of nigericin (1 ng NIG/μmol lipid) was added to a sample of SPM/Chol LUVs containing 300 mm KH2 PO4 and the temperature was increased to 60° C. for 5 min to ensure association of nigericin with the lipid. The sample was then exhaustively dialysed at room temperature against 300 mM sucrose for 20 hours, following which an aliquot was passed down a spin column prior to drug loading with VINC (FIG. 10B).
# To ensure that such was not the case, control uptake experiments were performed on LUVs containing ethylammonium sulfate and amylammonium sulfate which were subjected to the same conditions.
# [6] = Deamer et al.; cited from earlier work
# [7] = Vincristine uptake (loading) into LUVs using A23187 / Mn2+ systems; assay type: physicochemical; conditions: SPM/Chol LUVs, 300 mM MnSO4, 60 °C; for %-uptake / Retention: D/L 0.05, A23187 0.1 μg/μmol lipid
# Experimental: (§1) [^14 C]CIPRO was diluted with cold CIPRO and the specific activity was determined by liquid scintillation counting and absorbance spectroscopy. […] For experiments involving [^14 C]CIPRO, the lipid mixtures were labeled using trace amounts of [^3 H]CHE. For [^3 H]VINC uptake the lipid was labeled with [^14 C]CHE. Lipid specific activities were determined by liquid scintillation counting and by quantification of phospholipid via phosphate assays.
# Excellent uptake and retention of VINC can also be obtained using Mn^2+ /A23187 with SPM/Chol LUVs (see FIG. 8). Less than 5% uptake was observed when there was no EDTA present in the external medium of Hepes-buffered sucrose (pH 7.5). […] However, extremely poor uptake (40%) is observed at lower external pHs when using 300 mM sucrose 3 mM EDTA.
# [8] = Vincristine uptake (loading) into LUVs using nigericin/K+ systems; assay type: physicochemical; conditions: 60 °C
# Experimental: as §1
# As with CIPRO, no uptake was observed prior to the addition of nigericin (arrow). […] A further improvement was obtained (93-95%) for LUVs prepared in 300 mM K2 SO4 pH 7.4 with an external pH of 6 (either 20 mM HEPES 300 mM sucrose or 20 mM MES 300 mM sucrose) (see FIG. 9B).
# in vivo = conditions: mouse, iv; for half-life: 2 mg/kg
# Experimental: Lipid was measured using [^14 C]cholesteryl hexadecyl ether as a tracer. The %-retention is defined as the D/L ratio at time t divided by the initial measured drug to lipid ratio.
# SPM/Chol vesicles (100 nm) were used (55:45; mole %). The vesicles were prepared in a 300 mM K2 SO4 solution or 300 mM MnSO4 and the external medium was exchanged with 300 mM sucrose, 20 mM HEPES, pH 7.0 by overnight dialysis. […] Uptake of the drug was accomplished in the following manner: to an aliquot of liposomes was added either nigericin (1 ng per μmol of lipid) or A23187 (0.1 ,μg/μmol lipid) along with an appropriate amount of drug. For the A23187 experiments, EDTA was present in the external medium at 30 mM.
# Each mouse was injected via a lateral tail vein with 200 μL total volume. […] At varying time points, mice were anaesthetized and blood was collected via cardiac puncture. Blood was immediately centrifuged at 500 g and plasma was collected for lipid and drug determination.
# Each drug was loaded using several methods, and was injected at time 0 into mice. At the indicated times, samples were withdrawn and the D/L ratio of the recovered LUVs was determined.
# [9] = In vitro drug leakage from LUVs in 50% mouse serum at 37 °C; assay type: in vitro ADME; conditions: SPM/Chol LUVs
# Experimental: In this assay, equal volumes of the liposomal drug formulation and of mouse serum are combined in a test tube and incubated at 37° C. Leakage of the drug from the LUVs is assayed by removal of aliquots for spin column analysis.
# An in vitro leakage assay has been designed which employs mouse serum to assess the relative retentive properties of the various liposomal systems. The assay is extremely simple, involving the incubation of equal volumes of mouse serum and LUV (loaded with drug) at 37° C., followed by the application of aliquots to spin columns to quantitate the change in D/L ratio with time.
# [10] = Transmembrane ΔpH measured with [14C]methylamine after vincristine uptake; assay type: physicochemical; conditions: DSPC/Chol LUVs; 300 mM K2-tartrate pH 7.4; nigericin 1 ng/μmol lipid; external HEPES-buffered sucrose pH 5.3-6.3
# Experimental: Uptake of VINC in response to transmembrane gradients of K2 -tartrate has also been investigated in DSPC/Chol LUVs (Table 2). […] The ionophore concentration was 1 ng NIG/μmol lipid.
# [11] = external 300 mM sucrose + 3 mM EDTA
# [12] = SPM/Chol LUVs, 300 mM KH2PO4, D/L 0.05 wt:wt, nigericin 1 ng/μmol lipid, external 300 mM sucrose
compound,measurement,setting,value
CNc1ccc2oc(C[C@H]3O[C@@]4(CC[C@H]3C)O[C@H]([C@H](C)C(=O)c3ccc[nH]3)[C@H](C)C[C@H]4C)nc2c1C(=O)O [A23187],fraction of entrapped Mn2+ released from POPC vesicles,[1],< 1/2
same,Amount of A23187 measured,"[2]; S1, initial amount 146 ng, SPM/Chol LUVs",123 ng
same,remaining A23187 level,"[2]; S2, Sephadex G-50 column eluted with 300 mM sucrose, initial 109 ng",below background
same,remaining A23187 concentration,"[2]; S3, dialysis against 300 mM sucrose",below background levels
same,Amount of A23187 measured,"[2]; S4 + 45 ng A23187, initial amount 45 ng",41 ng
same,Amount of A23187 measured,"[2]; S4 + 90 ng A23187, initial amount 90 ng",94 ng
same,remaining A23187 concentration,"[2]; S4, SM-2 biobeads",below background levels
same,relative binding affinity,"[3]; Ca2+, relative to Mn2+ and Mg2+ (210:2.6:1)",2.6
same,relative binding affinity,"[3]; Mg2+, relative to Mn2+ and Ca2+ (210:2.6:1)",1
same,relative binding affinity,"[3]; Mn2+, relative to Ca2+ and Mg2+ (210:2.6:1)",210
same,divalent cation transport specificity,[3],Mn^2+ >Ca^2+ >Mg^2+
COc1cccc2c1C(=O)c1c(O)c3c(c(O)c1C2=O)C[C@@](O)(C(=O)CO)C[C@@H]3O[C@H]1C[C@H](N)[C@H](O)[C@H](C)O1 [doxorubicin],effect of encapsulation on drug toxicity (particularly acute cardiotoxicity),[4],can decrease drug toxicity
same,efficacy in liposomally-encapsulated formulations,[4],equal or increased efficacy
same,toxicity in liposomally-encapsulated formulations,[4],significantly reduced toxicity
amylammonium sulfate,encapsulation in control LUVs containing amine salt subjected to the same dialysis,"[5]; control LUVs, same dialysis conditions",80-95%
"O=C(O)c1cn(C2CC2)c2cc(N3CCNCC3)c(F)cc2c1=O [Ciprofloxacin, ciprofloxacin]",entrapment,"[5]; SPM/Chol LUVs, 300 mM K2SO4, nigericin 1 ng/μmol lipid and drug added at same time, D/L 0.2, 60 °C, within 30 min",80%
same,"in vitro leakage rates, normal versus nigericin-reduced LUVs",[5]; not shown,identical
"CO[C@@H]1C[C@@H](C[C@H]2CC[C@H](C)[C@H]([C@@H](C)C(=O)O)O2)O[C@]2(O[C@](C)([C@H]3CC[C@@](C)([C@@H]4O[C@@H]([C@H]5O[C@@](O)(CO)[C@H](C)C[C@@H]5C)C[C@@H]4C)O3)C[C@H]2C)[C@@H]1C [Nigericin, nigericin]",pH gradient formed across sonicated vesicle membranes,[6],2.2 units
"CC[C@]1(O)C[C@H]2CN(CCc3c([nH]c4ccccc34)[C@@](C(=O)OC)(c3cc4c(cc3OC)N(C=O)[C@H]3[C@@](O)(C(=O)OC)[C@H](OC(C)=O)[C@]5(CC)C=CCN6CC[C@]43[C@@H]65)C2)C1 [Vincristine, vincristine]",efficacy in liposomally-encapsulated formulations,[4],equal or increased efficacy
same,toxicity in liposomally-encapsulated formulations,[4],significantly reduced toxicity
same,uptake,"[7]; A23187, external Hepes-buffered sucrose pH 7.5, no EDTA",Less than 5%
same,%-uptake,[7]; [11],40%
same,Retention,[7]; [11],excellent
same,Retention,[7]; external 300 mM sucrose + 20 mM HEPES 3 mM EDTA pH 7.5,excellent
same,%-uptake,[7]; external 300 mM sucrose + 20 mM HEPES 3 mM EDTA pH 7.5 (text: within one hour),> 95%
same,%-uptake,"[7]; external 300 mM sucrose + 20 mM HEPES 3 mM EDTA pH 7.5 (text: within one hour), listed as VINC",over 95%
same,Retention,"[7]; external 300 mM sucrose + 20 mM HEPES 3 mM EDTA pH 7.5, listed as VINC",Excellent
same,%-uptake,"[7]; external 300 mM sucrose, no EDTA",5%
same,uptake after 20 h dialysis and spin column,"[5]; SPM/Chol LUVs, 300 mM KH2PO4 (printed 300 mm), nigericin 1 ng/μmol lipid, at 1 hr",60%
same,Retention,"[8]; DSPC/Chol LUVs, 300 mM K2-tartrate pH 7.4, D/L 0.05 wt:wt, nigericin 1 ng/μmol lipid, external 300 mM sucrose + 20 mM HEPES pH 5.3-6.3",excellent
same,%-uptake,"[8]; DSPC/Chol LUVs, 300 mM K2-tartrate pH 7.4, D/L 0.05 wt:wt, nigericin 1 ng/μmol lipid, external 300 mM sucrose + 20 mM HEPES pH 5.3-6.3 (text: within 15 min)",85-90%
same,%-uptake,"[8]; SPM/Chol LUVs, 300 mM K2-tartrate pH 7.4, D/L 0.05 wt:wt, nigericin 1 ng/μmol lipid, external 300 mM sucrose + 20 mM MES pH 6.0",70%
same,%-uptake,"[8]; SPM/Chol LUVs, 300 mM K2HPO4, D/L 0.05 wt:wt, nigericin 1 ng/μmol lipid, external 300 mM sucrose",< 5%
same,uptake prior to the addition of nigericin,"[8]; SPM/Chol LUVs, 300 mM K2SO4",no uptake
same,Retention,"[8]; SPM/Chol LUVs, 300 mM K2SO4, external 300 mM sucrose",excellent retention
same,Retention,"[8]; SPM/Chol LUVs, 300 mM K2SO4, external HEPES-buffered sucrose pH 7.5, over 75 minutes",poor retention
same,encapsulation,"[8]; SPM/Chol LUVs, 300 mM K2SO4, nigericin 1 ng/μmol lipid, external 300 mM sucrose",~90%
same,uptake,"[8]; SPM/Chol LUVs, 300 mM K2SO4, nigericin 1 ng/μmol lipid, external HEPES-buffered sucrose pH 7.5",60%
same,%-uptake,"[8]; SPM/Chol LUVs, 300 mM K2SO4 pH 7.4, D/L 0.05 wt:wt, nigericin 1 ng/μmol lipid, external 300 mM sucrose + 20 mM HEPES or MES pH 6.0",92%
same,%-uptake,"[8]; SPM/Chol LUVs, 300 mM K2SO4 pH 7.4, D/L 0.05 wt:wt, nigericin 1 ng/μmol lipid, external 300 mM sucrose + 20 mM HEPES or MES pH 6.0, listed as VINC",93-95%
same,%-uptake,[8]; [12],80%
same,Retention,[8]; [12],excellent
same,factor by which drug leakage half-lives differ (citrate vs A23187),in vivo,two
same,half-life,in vivo,6 h
same,half-life,in vivo; pH 4,8.5 h
same,"in vivo retention, A23187 versus 300 mM citrate pH 4.0",in vivo; pH 4,comparable
same,"retention in mouse serum, K+/nigericin with phosphate or tartrate salts, or sulfate salts with external pH of 6",[9],better retention
same,"retention of drug in mouse serum, Mn2+/A23187 versus K+/nigericin system",[9],better retention
same,"retention in mouse serum, Mn2+/A23187 versus LUVs loaded using methylammonium sulfate",[9]; results not shown,similar
same,ΔpH present following drug uptake,[10],2.3
